Here are results for three molecules from publication PMC7796460, “Relation of Metal-Binding Property and Selective Toxicity of 8-Hydroxyquinoline Derived Mannich Bases Targeting Multidrug Resistant Cancer Cells” (Cancers, 2021).

Data set [1] is described as follows: pKa by UV-visible spectrophotometric titrations. Type of data set: physicochemical. As to conditions: T = 25 °C, I = 0.2 M (KCl); for pKa: 0.2 M KCl (ionic strength).
The test system of data set [2] is MES-SA cells. Nature of the data set: MTT viability assay, MES-SA. Type of data set: cell-based, human. As to conditions: Table 2, value outside brackets, read-out: MES-SA (toxicity, Table 2). From the text: (§1) MDCK II canine kidney cells, A431 epidermoid carcinoma cells, the human uterine sarcoma cell lines MES-SA and the doxorubicin selected MES-SA-Dx5 were obtained from ATCC (MDCK II: No. CRL-2936™, A431: No. CRL-1555™, MES-SA: No. CRL-1976™, MES-SA/Dx5: No. CRL-1977™). ABCB1 was expressed in A431 and MES-SA cells using lentiviral transduction. The human cervix carcinoma cell line KB-3-1 and the vinblastine selected KB-v1were kind gifts from Dr. Michael M. Gottesman, National Institutes of Health. The phenotype of the resistant cells was verified using cytotoxicity assays. MDCK-B1 and MDCK-MM were established by the Sleeping Beauty transposon-based gene delivery system. OVCAR-8 and NCI-ADRres cells (obtained from the Division of Cancer Treatment and Diagnosis (DCTD) Tumor Repository (National Cancer Institute, Frederick, MD, USA)) were cultivated in RPMI-1640 (Sigma Aldrich, Budapest, Hungary), and other cell lines were cultivated in Dulbecco’s Modified Eagle Medium (DMEM, Sigma Aldrich, Budapest, Hungary), supplemented with 10% fetal bovine serum, 5 mM glutamine, and 50 unit/mL penicillin and streptomycin (Life Technologies, Carlsbad, CA, USA). All cell lines were cultivated at 37 °C, 5% CO2.
(§2) MTT viability assays were performed as described earlier with minor modifications. Briefly, cells were seeded into 96-well tissue culture plates (Sarstedt, Newton, NC, USA/Orange, Braine-l’Alleud, Belgium) at a density of 5000 cells/well and allowed to attach overnight. Test compounds were added to achieve the required final concentration in a final volume of 100 µL per well. After an incubation period of 72 h, the supernatant was removed and fresh medium containing the MTT reagent (0.083 mg/mL) was added. Incubation with MTT at 37 °C was terminated after 1 h by removing the supernatant and lysing the cells with 100 µL DMSO per well. Viability of the cells was measured spectrophotometrically based on the absorbance values at 540 nm using either a Perkin Elmer Victor X3 or an EnSpire microplate reader. Data were background corrected by subtraction of the signal obtained from unstained cell lysates and normalized to untreated cells. Curves were fitted by Prism software (GraphPad Software Inc., San Diego, CA, USA) using the sigmoidal dose-response model (comparing variable and fixed slopes). […] Significance was calculated using unpaired t-tests; results are given as *: p ≤ 0.05, **: p ≤ 0.01, ***: p ≤ 0.001, ****: p ≤ 0.0001.
(Formazan colour is commonly taken as a measure of viable cells.)

Data set [3] concerns MES-SA cells. Description: ROS determination with DCFDA, MES-SA. The class given is cell-based, human. To be noted: 2 h. The procedure:
(§3) Measurements were performed as described earlier. Briefly, cells were harvested, washed with PBS, and incubated with 10 µM DCFDA in a water bath shaker at 37 °C for 30 min in a density of 3 × 10^6 cells/mL. After washing with PBS, cells were seeded to 96-well plates in PBS in a density of 2 × 10^4 cells/well. Following the measurement of the basal fluorescence, test compounds were added in different concentrations and the fluorescence of the samples was followed at time intervals of 10 min. DCFDA solution in buffer was used as a cell free control to test for interaction of the test compounds with DCFDA. Data were analyzed as fold change of fluorescence compared to basal levels and untreated cells. Significance was calculated using unpaired t-tests; results are given as *: p ≤ 0.05, **: p ≤ 0.01, ***: p ≤ 0.001, ****: p ≤ 0.0001.
(§4) Table S3: Characterization of intracellular ROS production with the DCFDA assay for P -gp negative MES-SA and P-gp positive MES-SA/Dx5 cells. Fold changes in fluorescence are shown after a 2 h with the investigated 8 -hydroxyquinoline ligands. Data S-refer to Figure 7 and allow […]
(§5) concentration range from 6.25µ M to 50µ M. Fold change of fluorescence obtained in the presence of 5 mM NAC is given in brackets.

Data set [4] deals with MES-SA/Dx5 cells. Description: MTT viability assay, MES-SA/Dx5. Type of data set: cell-based, human. As to conditions: for IC50: read-out: MES-SA/Dx5 (toxicity, Table 2).
Text: as §1, §2

Data set [5] deals with MES-SA/Dx5 cells. Description: ROS determination with DCFDA, MES-SA/Dx5. The class given is cell-based, human. To be noted: 2 h. As for the experimental part:
as §3, §4, §5

The mark [6] stands for this setting: 6.25 µM, presence of 5 mM NAC (brackets).
Setting [7] is: 12.5 µM, presence of 5 mM NAC (brackets).
[8] abbreviates: 25 µM, presence of 5 mM NAC (brackets).
[9] abbreviates: 50 µM, presence of 5 mM NAC (brackets).
The mark [10] stands for this setting: Table 2, value in brackets (Tariquidar as in Table 1).
The mark [11] stands for this setting: Table 2, value outside brackets.
Setting [12] is: MES-SA/Dx5, 6.25 µM, presence of 5 mM NAC (brackets).
The mark [13] stands for this setting: MES-SA/Dx5, 12.5 µM, presence of 5 mM NAC (brackets).
[14] abbreviates: MES-SA/Dx5, 25 µM, presence of 5 mM NAC (brackets).
Where [15] appears, read: MES-SA/Dx5, 50 µM, presence of 5 mM NAC (brackets).
The mark [16] stands for this setting: group named in the cell (NmorpholiniumH+, NpiperidiniumH+, NbenzylamineH2+), read-out: pKa (additional).
[17] abbreviates: Homo sapiens, MES-SA/Dx5, Table 2, value outside brackets.

Where two headings read alike, the source gives them in different places. Where only a bound is given, the exact number is not on record here.

For the molecule “7-(2-fluorobenzyl-aminomethyl)-8-hydroxyquinoline hydrochloride [De-Cl-Q-4]”, the “pKa (NquinoliniumH+)” value in data set [1] came to 3.21 ± 0.04. Moreover, the “pKa (OH)” value in data set [1] was 6.42 ± 0.04. Besides, in data set [1] (group named in the cell (NmorpholiniumH+, NpiperidiniumH+, NbenzylamineH2+)), the “pKa (additional)” value is recorded as 10.69 ± 0.04 (NbenzylamineH2^+). Also, the values for the IC50 in the data set with MES-SA cells [2] and in the data set with MES-SA/Dx5 cells [4] (setting [11]) were 1.78 ± 0.08 µM and 0.34 ± 0.01 µM, respectively. Further, the “Fold change in fluorescence (DCFDA)” value in the data set on MES-SA cells [3] (6.25 µM) came to 1.431± 0.39; with MES-SA cells [3] (setting [6]), 1.364± 0.44; in the data set on MES-SA cells [3] (12.5 µM) it was 1.118± 0.14; in the data set on MES-SA cells [3] (setting [7]) it was 1.345± 0.27; with MES-SA cells [3] (25 µM) it was 1.260± 0.20; with MES-SA cells [3] (setting [8]) it was 1.111± 0.22. Also, the “Fold change in fluorescence (DCFDA)” value in the data set on MES-SA cells [3] (50 µM) is recorded as 1.328± 0.29; with MES-SA cells [3] (setting [9]) it was 1.259± 0.29; in the data set on MES-SA/Dx5 cells [5] (MES-SA/Dx5, 6.25 µM), 1.282± 0.35; with MES-SA/Dx5 cells [5] (setting [12]), 1.137± 0.30; in the data set with MES-SA/Dx5 cells [5] (MES-SA/Dx5, 12.5 µM) it was 1.177± 0.22; in the data set with MES-SA/Dx5 cells [5] (setting [13]), 1.088± 0.23. The “Fold change in fluorescence (DCFDA)” value with MES-SA/Dx5 cells [5] (MES-SA/Dx5, 25 µM) turned out to be 1.344± 0.27; with MES-SA/Dx5 cells [5] (setting [14]), 1.282± 0.28; in the data set with MES-SA/Dx5 cells [5] (MES-SA/Dx5, 50 µM), 1.373± 0.35; with MES-SA/Dx5 cells [5] (setting [15]) it was 1.265± 0.27. Also, the “SR MES-SA/Dx5 (Table 2)” value was determined as 1.72 with MES-SA/Dx5 cells [4] (setting [10]) and 5.22 in the data set on MES-SA/Dx5 cells [4] (setting [11]).
As for `Oc1c(CN2CCOCC2)cc(Cl)c2cccnc12` [Compound 5-Cl-Q-2], the values for the pKa in data set [1] (setting [16]), in data set [1] (read-out: pKa (NquinoliniumH+)) and in data set [1] (read-out: pKa (OH)) were 5.83 ± 0.02, under 2 and 9.68 ± 0.03, respectively. Moreover, the IC50 is 1.4 ± 0.24 µM in the data set with MES-SA cells [2] (Homo sapiens, MES-SA) and 0.64 ± 0.03 µM with MES-SA/Dx5 cells [4] (setting [17]). Moreover, the “Fold change in fluorescence (DCFDA)” value is given as 1.896± 0.32 in the data set with MES-SA cells [3] (6.25 µM); 1.600± 0.55 with MES-SA cells [3] (setting [6]); 2.226± 0.39 with MES-SA cells [3] (12.5 µM); 1.263± 0.62 with MES-SA cells [3] (setting [7]); 2.086± 0.66 with MES-SA cells [3] (25 µM); 1.309± 0.51 in the data set on MES-SA cells [3] (setting [8]). In addition, the “Fold change in fluorescence (DCFDA)” value turned out to be 2.609± 0.77 with MES-SA cells [3] (50 µM); 1.178± 0.40 with MES-SA cells [3] (setting [9]); 2.594± 0.87 with MES-SA/Dx5 cells [5] (MES-SA/Dx5, 6.25 µM); 1.246± 0.47 in the data set on MES-SA/Dx5 cells [5] (setting [12]); 3.214± 0.86 in the data set on MES-SA/Dx5 cells [5] (MES-SA/Dx5, 12.5 µM); 1.651± 0.73 in the data set on MES-SA/Dx5 cells [5] (setting [13]). Besides, the “Fold change in fluorescence (DCFDA)” value with MES-SA/Dx5 cells [5] (setting [14]) came to 1.265± 0.27; in the data set on MES-SA/Dx5 cells [5] (MES-SA/Dx5, 50 µM), 4.697± 3.24; in the data set with MES-SA/Dx5 cells [5] (setting [15]), 1.462± 0.39. Besides, the “SR MES-SA/Dx5 (Table 2)” value in the data set with MES-SA/Dx5 cells [4] (setting [10]) was found to be 1.39; in the data set on MES-SA/Dx5 cells [4] (setting [11]), 2.19.
Turning to `Oc1c(CN2CCCCC2)cc(Cl)c2cccnc12` [Compound 5-Cl-Q-3], the pKa in data set [1] (setting [16]) turned out to be 7.16 ± 0.03; in data set [1] (read-out: pKa (NquinoliniumH+)), 1.61 ± 0.04; in data set [1] (read-out: pKa (OH)), 4.85 ± 0.02. Also, the IC50 was determined as 1.3 ± 0.21 µM with MES-SA cells [2] (Homo sapiens, MES-SA) and 0.15 ± 0.01 µM in the data set on MES-SA/Dx5 cells [4] (setting [17]). For the same molecule, the “Fold change in fluorescence (DCFDA)” value with MES-SA cells [3] (6.25 µM) was determined as 1.672± 0.27; in the data set with MES-SA cells [3] (setting [6]), 1.307± 0.51; in the data set on MES-SA cells [3] (12.5 µM), 1.861± 0.40; with MES-SA cells [3] (setting [7]), 1.542± 0.35; with MES-SA cells [3] (25 µM), 1.812± 0.27; in the data set with MES-SA cells [3] (setting [8]), 1.382± 0.67. The “Fold change in fluorescence (DCFDA)” value in the data set on MES-SA cells [3] (50 µM) is 2.075± 0.68; with MES-SA cells [3] (setting [9]) it was 1.155± 0.25; with MES-SA/Dx5 cells [5] (MES-SA/Dx5, 6.25 µM) it was 1.975± 0.50; in the data set with MES-SA/Dx5 cells [5] (setting [12]), 1.024± 0.19; in the data set on MES-SA/Dx5 cells [5] (MES-SA/Dx5, 12.5 µM), 1.954± 0.42; in the data set on MES-SA/Dx5 cells [5] (setting [13]), 0.954± 0.14. The “Fold change in fluorescence (DCFDA)” value was determined as 2.714± 0.84 in the data set with MES-SA/Dx5 cells [5] (MES-SA/Dx5, 25 µM); 1.005± 0.21 in the data set with MES-SA/Dx5 cells [5] (setting [14]); 3.077± 1.29 with MES-SA/Dx5 cells [5] (MES-SA/Dx5, 50 µM); 1.086± 0.14 with MES-SA/Dx5 cells [5] (setting [15]). The “SR MES-SA/Dx5 (Table 2)” value in the data set with MES-SA/Dx5 cells [4] (setting [10]) came out at 1.61; in the data set with MES-SA/Dx5 cells [4] (setting [11]), 8.40.

A word on the pKa: it is the pH at which an ionisable group is half protonated.
